Structures can show the parent of a compound that is named as a salt.
Tested on: HCT116
Details: 72 h
In short: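 HCT116 cells were plated at 250 per well in 1536-well plates and allowed 5 h to attach. CellTiter-Glo luminescence was normalized to vehicle as 0% and positive control as -100%, followed by pattern correction. Four-parameter Hill fits provided IC50 and maximal efficacy.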

Structure (SMILES) | IC50 cell viability (ICRF193 0 nM) [µM] | IC50 cell viability (ICRF193 200 nM) [µM]
O=C(OCCN1CCCCC1)C(O)(c1ccccc1)c1ccccc1 [Piperilate hydrochloride] | > 45.8 | > 45.8
CCCCOCCOCCOCc1cc2c(cc1CCC)OCO2 [Piperonyl butoxide] | > 45.8 | > 45.8
NC(=O)CN1CCCC1=O [Piracetam] | > 45.8 | > 45.8
CC(C)(C)NCC(O)c1ccc(O)c(CO)n1 (stereo unspecified) [Pirbuterol hydrochloride] | > 45.8 | > 45.8
O=C(O)c1cc(O)c2c3nc4ccccc4oc-3cc(=O)c2n1 [Pirenoxine Sodium] | > 45.8 | > 45.8
CC[C@@H]1CCN[C@H](C(=O)N[C@@H]([C@H]2O[C@H](SC)[C@H](O)[C@@H](O)[C@H]2O)[C@H](C)Cl)C1 [Pirlimycin Hydrochloride] | > 45.8 | > 45.8
CN1C(C(=O)Nc2ccccn2)=C(O)c2ccccc2S1(=O)=O [Piroxicam] | > 45.8 | > 45.8
CC(C)(C)C(=O)OCOC(=O)[C@@H]1N2C(=O)[C@@H](NC(=O)[C@H](N)c3ccccc3)[C@H]2SC1(C)C [Pivampicillin] | > 45.8 | > 45.8
NCCC(=O)[N-][C@@H](Cc1c[nH]cn1)C(=O)[O-].[Zn+2] [Polaprezinc] | > 45.8 | > 45.8
CN1C(CSCC(F)(F)F)Nc2cc(Cl)c(S(N)(=O)=O)cc2S1(=O)=O (stereo unspecified) [Polythiazide] | > 45.8 | > 45.8
CCCCCC[C@@H](O)C/C=C\CCCCCCCC(=O)O [Potassium ricinoleate] | > 45.8 | > 45.8
C[n+]1ccccc1/C=N/O [Pralidoxime chloride] | > 45.8 | > 45.8
CCCN[C@H]1CCc2nc(N)sc2C1 [Pramipexole hydrochloride] | > 45.8 | > 45.8
O=C(N[C@H]1N=C(c2ccccc2F)c2cccc3c2N(CC3)C1=O)c1cc2ccccc2[nH]1 [Pranazepide] | > 45.8 | > 45.8
O=C(Nc1cccc2c(=O)cc(-c3nnn[nH]3)oc12)c1ccc(OCCCCc2ccccc2)cc1 [Pranlukast hydrate] | > 45.8 | > 45.8
CC(C(=O)O)c1ccc2c(c1)Cc1cccnc1O2 (stereo unspecified) [Pranoprofen] | > 45.8 | > 45.8
CC[C@H](C)C(=O)O[C@H]1C[C@H](O)C=C2C=C[C@H](C)[C@H](CC[C@@H](O)C[C@@H](O)CC(=O)O)[C@H]21 [Pravastatin] | > 45.8 | > 45.8
C[C@]12C=CC(=O)C=C1CC[C@@H]1[C@@H]2[C@@H](O)C[C@@]2(C)[C@H]1CC[C@]2(O)C(=O)COP(=O)(O)O [Prednisolone Phosphate (sodium salt)] | > 45.8 | > 45.8
CC(=O)OCC(=O)[C@@]1(O)CC[C@H]2[C@@H]3CCC4=CC(=O)C=C[C@]4(C)[C@H]3[C@@H](O)C[C@@]21C [Prednisolone acetate] | > 45.8 | > 45.8
CC(C)=CCC/C(C)=C/CC/C(C)=C/C(=O)OCC(=O)[C@@]1(O)CC[C@H]2[C@@H]3CCC4=CC(=O)C=C[C@]4(C)[C@H]3[C@@H](O)C[C@@]21C [Prednisolone farnesylate] | > 45.8 | > 45.8
C[C@]12C=CC(=O)C=C1CC[C@@H]1[C@@H]2[C@@H](O)C[C@@]2(C)[C@H]1CC[C@]2(O)C(=O)CO [Prednisolone] | > 45.8 | > 45.8
C[C@]12C=CC(=O)C=C1CC[C@@H]1[C@@H]2C(=O)C[C@@]2(C)[C@H]1CC[C@]2(O)C(=O)CO [Prednisone] | > 45.8 | > 45.8
C[C@H](O)[C@H]1CC[C@H]2[C@@H]3CC[C@@H]4C[C@H](O)CC[C@]4(C)[C@H]3CC[C@]12C [Pregnandiol] | > 45.8 | > 45.8
CC(=O)O[C@H]1CC[C@@]2(C)C(=CC[C@H]3[C@@H]4CC[C@H](C(C)=O)[C@@]4(C)CC[C@@H]32)C1 [Pregnenolone acetate] | > 45.8 | > 45.8
CC(=O)[C@H]1CC[C@H]2[C@@H]3CC=C4C[C@@H](O)CC[C@]4(C)[C@H]3CC[C@]12C [Pregnenolone] | > 45.8 | > 45.8
CCCNC(C)C(=O)Nc1ccccc1C (stereo unspecified) [Prilocaine hydrochloride] | > 45.8 | > 45.8
CC(C)(Sc1cc(C(C)(C)C)c(O)c(C(C)(C)C)c1)Sc1cc(C(C)(C)C)c(O)c(C(C)(C)C)c1 [Probucol] | > 45.8 | > 45.8
CCCN(CCC)C(=O)C(CCC(=O)O)NC(=O)c1ccccc1 (stereo unspecified) [Proglumide] | > 45.8 | > 45.8
CCCOc1ccc(C(=O)OCCN(CC)CC)cc1N [Proparacaine] | > 45.8 | > 45.8
CCCn1cnc2c1c(=O)n(CCCCC(C)=O)c(=O)n2C [Propentofylline] | > 45.8 | > 45.8

Continued, values first:

IC50 cell viability (ICRF193 0 nM) [µM] | IC50 cell viability (ICRF193 200 nM) [µM] | Structure (SMILES)
> 45.8 | > 45.8 | C1CNCCN1 [Piperazine]
> 45.8 | > 45.8 | CCN1CCCC(OC(=O)C(c2ccccc2)c2ccccc2)C1 (stereo unspecified) [Piperidolate hydrochloride]
> 45.8 | > 45.8 | CC1CCCCN1CCCOC(=O)c1ccccc1 (stereo unspecified) [Piperocaine hydrochloride]
> 45.8 | > 45.8 | O=C(CCBr)N1CCN(C(=O)CCBr)CC1 [Pipobroman]
> 45.8 | > 45.8 | CCCCCCCCCCCCCCCC(=O)OCCC1CCN(CCCN2c3ccccc3Sc3ccc(S(=O)(=O)N(C)C)cc32)CC1 [Pipothiazine palmitate]
> 45.8 | > 45.8 | CN1CCN(CC(=O)N2c3ccccc3C(=O)Nc3cccnc32)CC1 [Pirenzepine]
> 45.8 | > 45.8 | NS(=O)(=O)c1cc(C(=O)O)cc(N2CCCC2)c1Oc1ccccc1 [Piretanide]
> 45.8 | > 45.8 | Cc1ccc(=O)n(-c2ccccc2)c1 [Pirfenidone]
> 45.8 | > 45.8 | CC1CCCC(C)N1CCCC(O)(c1ccccc1)c1ccccn1 (stereo unspecified) [Pirmenol]
> 45.8 | > 45.8 | CCN1CCC(=C2c3ccccc3CCc3ccccc32)C1C (stereo unspecified) [Piroheptine Hydrochloride]
> 45.8 | > 45.8 | CCn1cc(C(=O)O)c(=O)c2cnc(N3CCCC3)nc21 [Piromidic acid]
> 45.8 | > 45.8 | Clc1ccc(CCCOCCCN2CCCCC2)cc1 [Pitolisant (hydrochloride)]
> 45.8 | > 45.8 | CC(C)(C)C(=O)OCOC(=O)[C@@H]1N2C(=O)[C@@H](/N=C/N3CCCCCC3)[C@H]2SC1(C)C [Pivmecillinam]
> 45.8 | > 45.8 | CN1CCC(=C2c3ccccc3CCc3sccc32)CC1 [Pizotifen]
> 45.8 | > 45.8 | c1cc(CN2CCCNCCNCCCNCC2)ccc1CN1CCCNCCNCCCNCC1 [Plerixafor hydrochloride]
> 45.8 | > 45.8 | Nc1cccc2c1C(=O)N(C1CCC(=O)NC1=O)C2=O (stereo unspecified) [Pomalidomide]
> 45.8 | > 45.8 | CC[C@@H]([C@H](C)O)n1ncn(-c2ccc(N3CCN(c4ccc(OC[C@@H]5CO[C@@](Cn6cncn6)(c6ccc(F)cc6F)C5)cc4)CC3)cc2)c1=O [Posaconazole]

IC50 cell viability (ICRF193 0 nM) [µM] | IC50 cell viability (ICRF193 200 nM) [µM] | Structure (SMILES)
> 45.8 | > 45.8 | CCCCOc1ccc(OCCCN2CCOCC2)cc1 [Pramoxine hydrochloride]
> 45.8 | > 45.8 | CC(=O)Oc1cc2c(s1)CCN(C(C(=O)C1CC1)c1ccccc1F)C2 (stereo unspecified) [Prasugrel]
> 45.8 | > 45.8 | O=C(C1CCCCC1)N1CC(=O)N2CCc3ccccc3C2C1 (stereo unspecified) [Praziquantel]
> 45.8 | > 45.8 | C[C@]12C=CC(=O)C=C1CC[C@@H]1[C@@H]2[C@@H](O)C[C@@]2(C)[C@H]1CC[C@]2(O)C(=O)COC(=O)c1cccc(S(=O)(=O)O)c1 [Predocol]
> 45.8 | > 45.8 | OC(CCN1CCCCC1)(c1ccccc1)c1ccccc1 [Pridinol]
> 45.8 | > 45.8 | CC[N+]1(CC)CCC(=C(c2ccccc2)c2ccccc2)C1C (stereo unspecified) [Prifinium bromide]
> 45.8 | > 45.8 | CCC1(c2ccccc2)C(=O)NCNC1=O [Primidone]
> 45.8 | > 45.8 | CCCN(CCC)S(=O)(=O)c1ccc(C(=O)O)cc1 [Probenecid]
> 45.8 | > 45.8 | CCN(CC)CCNC(=O)c1ccc(N)cc1 [Procainamide]
> 45.8 | > 45.8 | CNNCc1ccc(C(=O)NC(C)C)cc1 [Procarbazine hydrochloride]
> 45.8 | > 45.8 | CCC(NC(C)C)C(O)c1ccc(O)c2[nH]c(=O)ccc12 (stereo unspecified) [Procaterol]
> 45.8 | > 45.8 | OC(CCN1CCCC1)(c1ccccc1)C1CCCCC1 (stereo unspecified) [Procyclidine hydrochloride]
> 45.8 | > 45.8 | CC(C)NC(=N)NC(=N)Nc1ccc(Cl)cc1 [Proguanil hydrochloride]
> 45.8 | > 45.8 | CCCNCC(O)COc1ccccc1C(=O)CCc1ccccc1 (stereo unspecified) [Propafenone hydrochloride]
> 45.8 | > 45.8 | N=C(N)c1ccc(OCCCOc2ccc(C(=N)N)cc2)cc1 [Propamidine]
> 45.8 | > 45.8 | CC(C)[N+](C)(CCOC(=O)C1c2ccccc2Oc2ccccc21)C(C)C [Propantheline bromide]

From the supplement of paper PMC12137928
